Laboratory results taken from publication PMC9851200, “Multiparameter phenotypic screening for endogenous TFEB and TFE3 translocation identifies novel chemical series modulating lysosome function” (Autophagy, 2022).

Columns and labels:
Assay type in all cases: binding
[1] = target: T1, kinases (KINOMEscan panel) (Homo sapiens, UniProt O14965); settings: NEW KINOMEscan
T1 sequence (O14965 1-403): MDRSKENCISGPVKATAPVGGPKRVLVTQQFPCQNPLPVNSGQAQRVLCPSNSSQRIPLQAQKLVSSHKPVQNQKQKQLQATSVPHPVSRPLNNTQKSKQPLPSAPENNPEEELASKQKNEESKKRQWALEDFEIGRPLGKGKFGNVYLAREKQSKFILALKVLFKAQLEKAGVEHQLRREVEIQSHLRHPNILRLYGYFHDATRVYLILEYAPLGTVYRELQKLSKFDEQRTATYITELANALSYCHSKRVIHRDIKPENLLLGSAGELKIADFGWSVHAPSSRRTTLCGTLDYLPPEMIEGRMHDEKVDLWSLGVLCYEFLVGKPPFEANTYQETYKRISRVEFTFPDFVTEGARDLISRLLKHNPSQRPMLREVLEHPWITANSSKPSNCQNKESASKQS

[2] = target: T2, kinases (KINOMEscan panel) (Homo sapiens, UniProt O15146); settings: MUSK; NEW KINOMEscan
T2 sequence (O15146 24-869): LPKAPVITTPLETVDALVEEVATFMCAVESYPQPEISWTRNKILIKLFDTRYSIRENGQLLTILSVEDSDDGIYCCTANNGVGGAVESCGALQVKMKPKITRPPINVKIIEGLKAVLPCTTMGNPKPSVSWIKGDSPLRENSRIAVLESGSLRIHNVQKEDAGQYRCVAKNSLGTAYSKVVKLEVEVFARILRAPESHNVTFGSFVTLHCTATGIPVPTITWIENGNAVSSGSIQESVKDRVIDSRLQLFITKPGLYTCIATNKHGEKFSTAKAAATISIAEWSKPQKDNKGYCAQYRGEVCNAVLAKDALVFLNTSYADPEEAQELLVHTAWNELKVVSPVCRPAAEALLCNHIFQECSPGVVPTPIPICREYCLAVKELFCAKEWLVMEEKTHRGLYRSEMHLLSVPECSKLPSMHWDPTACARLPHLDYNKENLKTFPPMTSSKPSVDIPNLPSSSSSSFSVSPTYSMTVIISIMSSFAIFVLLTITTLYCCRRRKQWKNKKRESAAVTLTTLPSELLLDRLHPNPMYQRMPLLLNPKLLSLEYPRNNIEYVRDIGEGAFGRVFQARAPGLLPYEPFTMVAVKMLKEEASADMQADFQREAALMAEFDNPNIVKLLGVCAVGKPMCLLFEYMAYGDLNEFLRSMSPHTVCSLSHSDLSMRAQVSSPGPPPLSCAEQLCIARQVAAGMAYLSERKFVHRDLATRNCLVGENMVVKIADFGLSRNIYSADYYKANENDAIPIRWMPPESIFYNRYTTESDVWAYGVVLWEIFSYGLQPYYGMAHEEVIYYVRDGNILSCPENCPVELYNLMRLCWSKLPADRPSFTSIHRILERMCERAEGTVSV

[3] = target: kinases (KINOMEscan panel) (Homo sapiens, UniProt P07948); settings: NEW KINOMEscan
[4] = target: kinases (KINOMEscan panel) (Homo sapiens, UniProt P08581, Y1235D); settings: kinase MET(Y1235D); NEW KINOMEscan
[5] = target: kinases (KINOMEscan panel) (Homo sapiens, UniProt P36888, K663Q); settings: kinase FLT3(K663Q); NEW KINOMEscan
[6] = target: kinases (KINOMEscan panel) (Homo sapiens, UniProt Q00535); settings: NEW KINOMEscan
[7] = target: T3, kinases (KINOMEscan panel) (Homo sapiens, UniProt Q13470); settings: TNK1; NEW KINOMEscan
T3 sequence (Q13470 1-666): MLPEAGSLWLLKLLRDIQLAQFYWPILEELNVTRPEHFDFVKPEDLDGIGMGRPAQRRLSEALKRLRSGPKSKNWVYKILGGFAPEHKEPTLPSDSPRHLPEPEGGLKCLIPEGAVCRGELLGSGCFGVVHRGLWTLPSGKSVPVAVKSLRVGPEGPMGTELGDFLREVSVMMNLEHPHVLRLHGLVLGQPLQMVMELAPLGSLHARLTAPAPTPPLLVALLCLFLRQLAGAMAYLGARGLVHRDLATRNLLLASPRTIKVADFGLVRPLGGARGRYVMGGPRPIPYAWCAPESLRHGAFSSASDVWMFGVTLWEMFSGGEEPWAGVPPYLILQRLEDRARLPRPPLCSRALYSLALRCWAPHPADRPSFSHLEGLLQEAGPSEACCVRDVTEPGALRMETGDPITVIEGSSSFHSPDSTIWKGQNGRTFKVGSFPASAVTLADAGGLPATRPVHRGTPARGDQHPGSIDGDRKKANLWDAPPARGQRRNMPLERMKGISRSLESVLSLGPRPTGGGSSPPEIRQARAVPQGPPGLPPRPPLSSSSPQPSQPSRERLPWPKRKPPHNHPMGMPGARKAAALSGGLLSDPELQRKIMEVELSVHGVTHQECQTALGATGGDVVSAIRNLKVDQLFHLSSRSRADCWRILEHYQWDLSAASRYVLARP

[8] = target: kinases (KINOMEscan panel) (Homo sapiens, UniProt Q13554); settings: kinase CAMK2B; NEW KINOMEscan
Sequence of kinases (KINOMEscan panel) (Homo sapiens, UniProt Q13554) (Q13554 whole entry): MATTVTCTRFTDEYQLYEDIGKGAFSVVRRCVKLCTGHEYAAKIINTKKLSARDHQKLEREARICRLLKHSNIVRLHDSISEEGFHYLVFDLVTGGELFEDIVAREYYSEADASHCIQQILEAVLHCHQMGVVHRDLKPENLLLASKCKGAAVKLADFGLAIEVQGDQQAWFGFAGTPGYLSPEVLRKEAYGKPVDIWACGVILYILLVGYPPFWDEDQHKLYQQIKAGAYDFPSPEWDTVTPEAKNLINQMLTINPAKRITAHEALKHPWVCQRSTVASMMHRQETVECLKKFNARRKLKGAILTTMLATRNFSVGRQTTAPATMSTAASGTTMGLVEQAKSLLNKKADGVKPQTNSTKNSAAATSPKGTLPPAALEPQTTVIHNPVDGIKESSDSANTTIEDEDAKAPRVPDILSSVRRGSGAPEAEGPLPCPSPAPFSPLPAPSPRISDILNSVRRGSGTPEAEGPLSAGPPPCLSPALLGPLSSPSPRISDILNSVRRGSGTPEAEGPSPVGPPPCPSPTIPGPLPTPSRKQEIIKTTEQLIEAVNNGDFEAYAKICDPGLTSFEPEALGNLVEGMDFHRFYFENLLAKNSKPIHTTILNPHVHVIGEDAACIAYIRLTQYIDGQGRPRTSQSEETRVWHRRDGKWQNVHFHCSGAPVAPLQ

Sequence of kinases (KINOMEscan panel) (Homo sapiens, UniProt P07948) (P07948 whole entry): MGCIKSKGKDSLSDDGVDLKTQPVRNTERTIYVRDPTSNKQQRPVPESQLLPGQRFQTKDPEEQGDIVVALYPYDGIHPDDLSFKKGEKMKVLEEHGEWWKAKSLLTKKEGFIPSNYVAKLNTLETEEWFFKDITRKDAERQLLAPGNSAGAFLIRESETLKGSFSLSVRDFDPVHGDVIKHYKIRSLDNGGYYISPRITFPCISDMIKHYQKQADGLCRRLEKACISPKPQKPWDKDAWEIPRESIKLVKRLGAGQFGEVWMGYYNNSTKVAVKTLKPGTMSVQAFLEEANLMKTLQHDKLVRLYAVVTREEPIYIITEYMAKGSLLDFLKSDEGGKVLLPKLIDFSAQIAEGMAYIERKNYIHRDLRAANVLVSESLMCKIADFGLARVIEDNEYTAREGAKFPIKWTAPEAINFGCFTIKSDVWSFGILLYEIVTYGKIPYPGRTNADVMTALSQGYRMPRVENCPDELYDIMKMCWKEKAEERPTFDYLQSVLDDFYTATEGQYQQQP
Sequence of kinases (KINOMEscan panel) (Homo sapiens, UniProt P08581, Y1235D) (P08581 25-1390 Y1235D): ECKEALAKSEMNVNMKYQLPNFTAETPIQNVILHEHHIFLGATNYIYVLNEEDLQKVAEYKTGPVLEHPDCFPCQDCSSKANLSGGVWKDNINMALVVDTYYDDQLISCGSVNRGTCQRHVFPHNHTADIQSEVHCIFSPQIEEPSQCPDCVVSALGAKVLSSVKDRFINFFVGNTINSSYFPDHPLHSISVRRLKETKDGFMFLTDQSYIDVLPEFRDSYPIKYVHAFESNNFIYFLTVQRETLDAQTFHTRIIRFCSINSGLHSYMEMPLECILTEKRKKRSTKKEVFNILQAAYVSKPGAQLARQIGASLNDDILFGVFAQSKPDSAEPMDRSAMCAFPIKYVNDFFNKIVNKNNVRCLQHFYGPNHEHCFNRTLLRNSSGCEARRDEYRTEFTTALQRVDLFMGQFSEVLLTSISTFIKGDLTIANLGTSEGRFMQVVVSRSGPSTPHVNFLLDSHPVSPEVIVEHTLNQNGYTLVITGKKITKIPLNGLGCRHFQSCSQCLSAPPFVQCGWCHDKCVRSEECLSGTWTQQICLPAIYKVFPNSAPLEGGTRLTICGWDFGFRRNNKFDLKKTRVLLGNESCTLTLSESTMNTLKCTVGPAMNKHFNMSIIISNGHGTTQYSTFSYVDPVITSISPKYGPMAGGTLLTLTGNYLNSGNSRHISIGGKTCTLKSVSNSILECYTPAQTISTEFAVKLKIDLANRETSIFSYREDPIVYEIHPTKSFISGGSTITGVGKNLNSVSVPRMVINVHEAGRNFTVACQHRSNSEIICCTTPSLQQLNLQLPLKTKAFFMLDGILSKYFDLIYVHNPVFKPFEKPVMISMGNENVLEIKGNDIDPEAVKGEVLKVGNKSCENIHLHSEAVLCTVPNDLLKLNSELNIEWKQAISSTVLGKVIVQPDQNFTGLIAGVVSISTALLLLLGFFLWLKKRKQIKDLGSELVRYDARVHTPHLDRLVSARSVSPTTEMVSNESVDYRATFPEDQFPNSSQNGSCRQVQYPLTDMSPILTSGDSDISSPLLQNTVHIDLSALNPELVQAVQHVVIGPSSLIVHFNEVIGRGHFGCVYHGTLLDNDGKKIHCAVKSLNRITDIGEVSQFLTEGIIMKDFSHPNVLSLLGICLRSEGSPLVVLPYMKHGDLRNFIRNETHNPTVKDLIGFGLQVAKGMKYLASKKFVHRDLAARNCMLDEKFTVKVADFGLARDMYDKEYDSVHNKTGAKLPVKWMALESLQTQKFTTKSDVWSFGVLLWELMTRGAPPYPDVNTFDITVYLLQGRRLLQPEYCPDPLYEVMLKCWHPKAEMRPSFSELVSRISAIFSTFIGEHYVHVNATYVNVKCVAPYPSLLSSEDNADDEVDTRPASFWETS
Sequence of kinases (KINOMEscan panel) (Homo sapiens, UniProt Q00535) (Q00535 whole entry): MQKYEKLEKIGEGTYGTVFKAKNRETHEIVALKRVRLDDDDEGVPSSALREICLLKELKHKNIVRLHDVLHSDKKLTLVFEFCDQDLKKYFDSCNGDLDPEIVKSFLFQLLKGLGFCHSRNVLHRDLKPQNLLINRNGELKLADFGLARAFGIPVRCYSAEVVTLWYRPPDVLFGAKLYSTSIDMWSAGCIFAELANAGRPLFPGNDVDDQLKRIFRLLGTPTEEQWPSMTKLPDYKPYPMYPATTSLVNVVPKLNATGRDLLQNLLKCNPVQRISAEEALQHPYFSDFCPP

SMILES	KINOMEscan AURKA [1]	KINOMEscan MUSK [2]	KINOMEscan LYN [3]	KINOMEscan MET(Y1235D) [4]	KINOMEscan FLT3(K663Q) [5]	KINOMEscan CDK5 [6]	KINOMEscan TNK1 [7]	KINOMEscan CAMK2B [8]
Cc1cccc(-c2nc(Nc3ccc4nn(C)cc4c3)c3ccccc3n2)n1 [NK167]	3	2	17	7	0	14	0	0
Cc1cccc(-c2nc(N(C)c3ccc4ncsc4c3)c3ccccc3n2)n1 [NK-161]	22	0	12	1	0	19	7	0
